Experimental findings from US11612599B2, “Glycosidase inhibitors” (Asceneuron SA, priority 2016, dated 2023) are described below.

Bounds are passed on as bounds.

One may read the IC50 as the concentration at which inhibition is half-maximal.

Chain of Human O-GlcNAcase (His-Tagged hOGA) (O60502 whole entry): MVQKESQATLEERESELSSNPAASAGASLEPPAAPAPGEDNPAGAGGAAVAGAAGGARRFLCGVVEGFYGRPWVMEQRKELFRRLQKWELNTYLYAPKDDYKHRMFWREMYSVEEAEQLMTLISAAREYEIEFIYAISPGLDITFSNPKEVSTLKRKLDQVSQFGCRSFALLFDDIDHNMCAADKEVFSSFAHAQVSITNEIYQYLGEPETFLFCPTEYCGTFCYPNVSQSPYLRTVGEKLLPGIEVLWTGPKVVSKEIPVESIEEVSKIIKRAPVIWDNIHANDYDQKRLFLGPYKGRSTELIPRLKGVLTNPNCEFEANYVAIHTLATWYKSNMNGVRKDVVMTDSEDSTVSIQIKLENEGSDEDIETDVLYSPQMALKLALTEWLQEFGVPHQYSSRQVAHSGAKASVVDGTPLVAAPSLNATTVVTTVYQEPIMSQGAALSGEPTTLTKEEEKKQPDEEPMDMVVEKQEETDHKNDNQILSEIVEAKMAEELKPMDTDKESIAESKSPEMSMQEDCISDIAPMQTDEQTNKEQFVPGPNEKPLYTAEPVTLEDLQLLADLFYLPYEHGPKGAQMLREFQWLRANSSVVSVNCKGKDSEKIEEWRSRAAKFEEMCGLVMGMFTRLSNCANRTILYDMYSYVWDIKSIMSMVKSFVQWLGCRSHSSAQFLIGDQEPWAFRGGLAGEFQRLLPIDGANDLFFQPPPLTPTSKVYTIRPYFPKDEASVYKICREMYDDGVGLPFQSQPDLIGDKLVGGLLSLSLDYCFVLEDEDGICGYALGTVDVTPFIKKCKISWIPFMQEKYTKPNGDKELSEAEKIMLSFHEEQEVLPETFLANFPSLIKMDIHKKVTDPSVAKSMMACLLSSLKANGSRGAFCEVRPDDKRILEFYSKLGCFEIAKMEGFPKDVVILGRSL

This test addresses Human O-GlcNAcase (His-Tagged hOGA) (Homo sapiens (Human), UniProt O60502). Briefly: Human O-GlcNAcase enzyme inhibition assay. The note with it: OGA enzyme inhibition assay; activity range classes defined in μM. The format is biochemical.
Description: Then, 20 nM of His-Tagged hOGA and 10 μM of FL-GlcNAc (Fluorescein mono-beta-D-(2-deoxy-2-N-acetyl) glucopyranoside; Marker Gene Technologies Inc, M1485) were added to the 384-well plate for a final volume of 20 μl.
Regarding `CC(c1ccc2c(c1)OCC2)N1CCN(c2ccc3c(c2)C(=O)NC3)CC1` (racemic) [Example 2, 6-(4-(1-(2,3-dihydrobenzofuran-6-yl)ethyl)piperazin-1-yl)isoindolin-1-one], the IC50 was below 0.05 µM.
Take `CC(c1ccc2c(c1)OCC2)N1CCN(c2cc3c(cn2)NC(=O)CO3)CC1` (racemic) [Example 3, 7-(4-(1-(2,3-dihydrobenzofuran-6-yl)ethyl)piperazin-1-yl)-2H-pyrido[4,3-b][1,4]oxazin-3(4H)-one]: the IC50 was below 0.05 µM.
For the compound `CC(c1ccc2nccnc2c1)N1CCN(c2ccc3c(c2)C(=O)NC3)CC1` (racemic) [Example 4, 6-(4-(1-(quinoxalin-6-yl)ethyl)piperazin-1-yl)isoindolin-1-one], the IC50 was 0.05 to 0.2 µM.
For the compound `Cc1ncc2ccc(N3CCN(C(C)c4ccc5c(c4)OCC5)CC3)cn12` (racemic) [Example 1, 6-(4-(1-(2,3-dihydrobenzofuran-6-yl)ethyl)piperazin-1-yl)-3-methylimidazo[1,5-a]pyridine], the IC50 is below 0.05 µM.
With `CC(c1ccc2c(c1)OCC2)N1CCN(c2nc3c(s2)C(=O)NCC3)CC1` (racemic) [Example 12, 2-(4-(1-(2,3-dihydrobenzofuran-6-yl)ethyl)piperazin-1-yl)-6,7-dihydrothiazolo[5,4-c]pyridin-4(5H)-one] the figure was below 0.05 µM; with `C[C@H](c1ccc2c(c1)OCC2)N1CCN(c2nc3c(s2)CNCC3)CC1` (single isomer, unassigned) [Example 18], 1 to 10 µM.
